Measured values as given in US20240336596A1, “PARP7 INHIBITOR AND USE THEREOF” (NOVOSTAR PHARMACEUTICALS, LTD., priority 2022, published 2024).

Key:
NCI-H1373 cancer cells = assay: NCI-H1373 cancer cell growth inhibition (CellTiter-Glo, 144 hours); assay type: cell-based; conditions: Homo sapiens, 144 hours culture
Protocol: Promega CellTiter-Glo cell activity assay kit (Item No.: Promege-G7573) was used to determine the cell activity. 90 μL NCI-H1373 cell suspension (ATCC, catalog No. CRL-5866, batch No. 58078716) was spread into the pores of the 96-well plate with 3500 cells per well. After 24 hours, the 10 μL prepared 10× compound working solution was added into the pores of the cell culture plate with a final concentration of 10 μM. 3.3333 μM, 1.1111 μM, 0.3704 μM, 0.1235 μM, 0.0412 μM, 0.0137 μM, 0.0046 μM, 0.0015 μM, 0.0005 μM, 10 μL DMSO was added to the solvent control, and the final concentration of DMSO was 0.2%. The 0-day plates were collected for analysis, and after 144 hours of culture, the growth condition of cells was detected according to the instructions of CellTiter-Glo cell activity assay kit. Add 50 μL of CellTiter-Glo working liquid into each hole of the cell culture plate, shake the plates in the dark for 2 minutes until cell lysis, and place at room temperature for 10 minutes to detect the luminous signal (RUL) of each cell hole on the 2104En Vision board reader.
Calculation formula: Growth inhibition rate %=(1−(RLU compound−RLU Day0)/(RLU solvent control−RLU Day0))*100%. The dose-response curves of each compound were fitted by GraphPad Prism 8 to obtain IC50 values.
For the matter, IC50 values less than 0.1 μM are labeled “+++”, values from 0.1 to 1 μM are labeled “++”, and values greater than 1 to 10 μM are labeled “+”.

[1] = target: T1, recombinant human PARP7 protein (Homo sapiens, UniProt Q7Z3E1); assay: Inhibition of PARP7 biological enzyme activity (histone-coated plate, Biotin-NAD+, chemiluminescence); assay type: biochemical; conditions: recombinant human PARP7, Biotin-NAD+ substrate
T1 construct: purchased Abcam ab271651
T1 sequence (Q7Z3E1 1-657): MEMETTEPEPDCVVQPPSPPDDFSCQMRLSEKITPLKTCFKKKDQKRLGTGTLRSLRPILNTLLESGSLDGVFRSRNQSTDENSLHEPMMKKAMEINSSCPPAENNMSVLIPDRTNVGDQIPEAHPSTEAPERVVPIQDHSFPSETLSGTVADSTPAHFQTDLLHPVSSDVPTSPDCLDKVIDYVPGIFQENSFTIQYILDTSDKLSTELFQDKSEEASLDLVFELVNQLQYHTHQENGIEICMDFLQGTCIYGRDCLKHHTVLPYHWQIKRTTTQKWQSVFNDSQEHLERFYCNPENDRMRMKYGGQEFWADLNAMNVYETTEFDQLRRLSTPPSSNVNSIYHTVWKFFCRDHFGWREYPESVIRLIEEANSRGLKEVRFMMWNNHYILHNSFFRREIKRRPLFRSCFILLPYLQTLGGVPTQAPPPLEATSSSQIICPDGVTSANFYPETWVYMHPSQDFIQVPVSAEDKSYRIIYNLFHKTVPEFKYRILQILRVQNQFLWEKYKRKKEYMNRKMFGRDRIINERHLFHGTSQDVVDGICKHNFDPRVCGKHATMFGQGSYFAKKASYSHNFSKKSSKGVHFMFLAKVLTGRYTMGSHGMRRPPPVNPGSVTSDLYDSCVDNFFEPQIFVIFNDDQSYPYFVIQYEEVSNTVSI
Protocol: The recombinant human PARP7 protein kit (Abcam, catalog number ab271651) was used for the assay. According to the kit instructions, 30 μL of histone coating solution (1.5 μg/mL) was first applied to the 384 well holes of the reaction plate and coated at 4° C. for 2 hours. Then, the histone coated solution was washed off, and 50 μL sealing buffer was added to each well, and the sealing buffer was washed off after incubation at 25° C. for 60 minutes. 1000 times the concentration of the compound was 10 configured and diluted from 1 mM to 0.05 μM, and the configured compound was transferred to 384-well plates with 25 nL per well using Echo. The final concentration of the compound in the reaction system was 1000 nM, 333.33 nM, 111.11 nM, 37.03 nM, 12.34 nM, 4.11 nM, 1.37 nM, 0.45 nM, 0.15 nM, 0.05 nM, which was used as the test hole. At the same time, 25 nL DMSO was added to the negative control well and the positive control well. The PARP7 enzyme solution with a concentration of 1.67 times was prepared, and the PARP7 enzyme solution was added to the test hole and the positive control hole with 15 μL each, while the negative control hole was added with 15 μL base Buffer, and incubated at 25° C. for 15 minutes. Then 10 μL 2.5 times Biotin-NAD+ substrate solution was added and incubated at 25° C. for 60 min. After the reaction solution was washed off, the 384-well reaction plates were treated with closed buffer solution diluted with streptavidin-HRP (1:500), each well was 30 μL, and incubated at 25° C. for 30 min. After the HRP buffer was washed off, 30 μL HRP chemiluminescent substrate mixture was added to each well, and the luminescence signal (RLU) of each well was detected by Envision. Calculation formula: Inhibition rate %=(average positive control-RLU compound)/(average positive control-average negative control))*100%. The dose-response curves of each compound were fitted by GraphPad Prism 8 to get IC50 values. IC50 values less than 0.01 μM are labeled as “+++”, IC50 values from 0.01 to 0.1 µM are labeled as “++”, and IC50 values greater than 0.1 to 10.0 μM are labeled as “+”.

SMILES | IC50 (NCI-H1373 cancer cells) [nM] | IC50 [1] [nM]
C[C@@H](/C=N/OCC(=O)N1CCN(c2ncc(C(F)(F)F)cn2)CC1)Nc1cn[nH]c(=O)c1C(F)(F)F [Example 5, (S,E)-2-((6-oxo-5-(trifluoromethyl)-1,6-dihydropyridazin-4-yl)amino) propanal O-(2-oxo-2-(4-(5-(trifluoromethyl)pyrimidin-2-yl)piperazin-1-yl)ethyl) oxime] | < 100 | < 10
CC[C@@H](/C=N/OCC(=O)N1CCN(c2ncc(C(F)(F)F)cn2)CC1)Nc1cn[nH]c(=O)c1C(F)(F)F [Example 6, (S,E)-2-((6-oxo-5-(trifluoromethyl)-1,6-dihydropyridazin-4-yl)amino)butanal O-(2-oxo-2-(4-(5-(trifluoromethyl)pyrimidin-2-yl)piperazin-1-yl)ethyl)oxime] | 100 to 1000 | < 10
C[C@@H](/C=N/OCC(=O)N1CCN(c2ncc(C#N)cn2)CC1)Nc1cn[nH]c(=O)c1C(F)(F)F [Example 7, (S,E)-2-(4-(2-(((2-((6-oxo-5-(trifluoromethyl)-1,6-dihydropyridazin-4-yl)amino)propylidene)amino)oxy)acetyl)piperazin-1-yl)pyrimidine-5-carbonitrile] | 1000 to 10000 | < 10
C/C(=N\OCC(=O)N1CCN(c2ncc(C(F)(F)F)cn2)CC1)[C@H](C)Nc1cn[nH]c(=O)c1C(F)(F)F [Example 8, (S,E)-5-((3-((2-oxo-2-(4-(5-(trifluoromethyl)pyrimidin-2-yl)piperazin-1-yl)ethoxy)imino)butan-2-yl)amino)-4-(trifluoromethyl)pyridazin-3(2H)-one] | – | 10 to 100
O=C(CO/N=C1\CCC[C@@H]1Nc1cn[nH]c(=O)c1C(F)(F)F)N1CCN(c2ncc(C(F)(F)F)cn2)CC1 [Example 9, (S,E)-5-((2-((2-oxo-2-(4-(5-(trifluoromethyl)pyrimidin-2-yl)piperazin-1-yl)ethoxy)imino)cyclopentyl)amino)-4-(trifluoromethyl)pyridazin-3(2H)-one] | 100 to 1000 | < 10
O=C(CO/N=C/[C@@H](Nc1cn[nH]c(=O)c1C(F)(F)F)C1CC1)N1CCN(c2ncc(C(F)(F)F)cn2)CC1 [Example 10, (S,E)-2-cyclopropyl-2-((6-oxo-5-(trifluoromethyl)-1,6-dihydropyridazin-4-yl)amino)acetaldehyde O-(2-oxo-2-(4-(5-(trifluoromethyl)pyrimidin-2-yl)piperazin-1-yl)ethyl) oxime] | 100 to 1000 | < 10
C[C@@H](/C=N/OCC(=O)N1CCN(c2ccc(C#N)cn2)CC1)Nc1cn[nH]c(=O)c1C(F)(F)F [Example 11, (S,E)-6-(4-(2-(((2-((6-oxo-5-(trifluoromethyl)-1,6-dihydropyridazin-4-yl)amino)propylidene)amino)oxy)acetyl)piperazin-1-yl)nicotinonitrile] | 1000 to 10000 | < 10
C[C@@H](/C=N/OCC(=O)N1CCN(c2ccc(C(F)(F)F)cn2)CC1)Nc1cn[nH]c(=O)c1C(F)(F)F [Example 12, (S,E)-2-((6-oxo-5-(trifluoromethyl)-1,6-dihydropyridazin-4-yl)amino)propanal O-(2-oxo-2-(4-(5-(trifluoromethyl)pyridin-2-yl)piperazin-1-yl)ethyl) oxime] | 100 to 1000 | < 10
C[C@@H]1CN(c2ccc(C#N)cn2)CCN1C(=O)CO/N=C/[C@H](C)Nc1cn[nH]c(=O)c1C(F)(F)F [Example 13, 6-((R)-3-methyl-4-(2-(((E)-((S)-2-((6-oxo-5-(trifluoromethyl)-1,6-dihydropyridazin-4-yl)amino)propylidene)amino)oxy)acetyl)piperazin-1-yl)nicotinonitrile] | 1000 to 10000 | < 10
C[C@@H](/C=N/OCCC1CCN(c2ncc(C(F)(F)F)cn2)CC1)Nc1cn[nH]c(=O)c1C(F)(F)F [Example 14, (S,E)-2-((6-oxo-5-(trifluoromethyl)-1,6-dihydropyridazin-4-yl)amino)propanal O-(2-(1-(5-(trifluoromethyl)pyrimidin-2-yl)piperidin-4-yl)ethyl) oxime] | 1000 to 10000 | < 10
C[C@@H](CO/N=C/C(=O)N1CCN(c2ncc(C(F)(F)F)cn2)CC1)Nc1cn[nH]c(=O)c1C(F)(F)F [Example 15, (S,E)-2-oxo-2-(4-(5-(trifluoromethyl)pyrimidin-2-yl)piperazin-1-yl)acetaldehyde O-(2-((6-oxo-5-(trifluoromethyl)-1,6-dihydropyridazin-4-yl)amino)propyl) oxime] | 100 to 1000 | < 10
C/C(=N\OC[C@H](C)Nc1cn[nH]c(=O)c1C(F)(F)F)C(=O)N1CCN(c2ncc(C(F)(F)F)cn2)CC1 [Example 16, (S,E)-5-((1-(((1-oxo-1-(4-(5-(trifluoromethyl)pyrimidin-2-yl)piperazin-1-yl)propan-2-ylidene)amino)oxy)propan-2-yl)amino)-4-(trifluoromethyl)pyridazin-3(2H)-one] | – | 10 to 100
CC(/C=N/OCC(=O)N1CCN(c2ncc(C(F)(F)F)cn2)CC1)c1cccc2c(=O)[nH]ncc12 (stereo not drawn) [Example 18, (E)-2-(1-oxo-1,2-dihydrophthalazin-5-yl)propanal O-(2-oxo-2-(4-(5-(trifluoromethyl)pyrimidin-2-yl)piperazin-1-yl)ethyl) oxime] | 1000 to 10000 | < 10
CC(/C=N/OCC(=O)N1CCN(c2ccc(C(F)(F)F)cn2)CC1)c1cccc2c(=O)[nH]ncc12 (stereo not drawn) [Example 19, (E)-2-(1-oxo-1,2-dihydrophthalazin-5-yl)propanal O-(2-oxo-2-(4-(5-(trifluoromethyl)pyridin-2-yl)piperazin-1-yl)ethyl) oxime] | 1000 to 10000 | < 10
C[C@@H](CONC(=O)C(F)C1=CCN(c2ncc(C(F)(F)F)cn2)CC1)Nc1cn[nH]c(=O)c1C(F)(F)F (stereo partly drawn) [Example 22, 2-fluoro-N—((S)-2-((6-oxo-5-(trifluoromethyl)-1,6-dihydropyridazin-4-yl)amino)propoxy)-2-(1-(5-(trifluoromethyl)pyrimidin-2-yl)-1,2,3,6-tetrahydropyridin-4-yl) acetamide] | < 100 | < 10
C[C@@H](CONC(=O)/C=C1\CCN(c2ncc(C(F)(F)F)cn2)CC1F)Nc1cn[nH]c(=O)c1C(F)(F)F (stereo partly drawn) [Example 23, (E)-2-(3-fluoro-1-(5-(trifluoromethyl)pyrimidin-2-yl)piperidin-4-ylidene)-N—((S)-2-((6-oxo-5-(trifluoromethyl)-1,6-dihydropyridazin-4-yl)amino)propoxy)acetamide] | 100 to 1000 | < 10
